The text below walks through data of publication PMC10068313, “Mechanical forces impair antigen discrimination by reducing differences in T‐cell receptor/peptide–MHC off‐rates” (The EMBO Journal, 2022).

In experiment [1] the test system is 1G4 TCR. More on the design: method as in Robert et al, 2012. The conditions noted are these: ref Robert et al, 2012; cited from earlier work.
Experiment [2] deals with 1G4 TCR. Kind of experiment: Laminar flow chamber (LFC) assay, 1G4 TCR-coated beads over pMHC surface. The note with it: for force sensitivity parameter xβ, 1G4 TCR: Bell's model fit of off-rates under force (survival at 1 s, corrected for non-specific binding), forces < 120 pN, 6–10 independent experiments combined; for force sensitivity parameter xβ, 1G4 TCR / zero-force off-rate (k0off) from Bell's model, 1G4 TCR: cell-free; for force sensitivity parameter xβ, 1G4 TCR / bond type at forces < 20 pN, 1G4 TCR / bond type under force, 1G4 TCR / zero-force off-rate (k0off) from Bell's model, 1G4 TCR / off-rate: 37°C; for bond type at forces < 20 pN, 1G4 TCR / bond type under force, 1G4 TCR: LFC; for bond type under force, 1G4 TCR: purified TCR; for zero-force off-rate (k0off) from Bell's model, 1G4 TCR: extrapolated from off-rates under force (survival at 1 s, corrected data); for off-rate: survival at 1 s, corrected data; for koff_0: source data of Fig 2E, 1G4 TCR, zero-force off-rate from Bell's model fit.
Description: In this assay, beads coated with TCR flow over a low density of pMHC while a camera records bead motion (Fig 2A, Movie EV1). […] The duration of TCR/pMHC binding is determined by an automated image analysis algorithm that detects the duration of bead arrests.
We first confirmed that bead arrests were mediated by single bonds. […] These constraints limit the LFC to a range of flow velocities that translate into pulling forces between ~ 5–120 pN with the upper bound determined, in part, by the binding rate and strength of the specific TCR/pMHC interaction. Finally, survival distributions were generated using the duration of individual beads for each TCR/pMHC pair and corrected by the corresponding distribution of arrests without pMHC for each paired velocity. We focus on the first 5 s of the distribution because on longer timescales measurement of bead arrest is often interrupted by a collision from a second bead.
Glass slides were rinsed twice in absolute ethanol then washed in a “piranha” solution composed of 70% H2SO4, 15% water and 15% H2O2 for 10 min, then rinsed with 5 litres of deionized water. […] Glass slides were then mounted in a home‐made multi‐channel thermo‐regulated flow chamber device, forming nine independent chambers of 12 mm length and 2 × 0.250 mm^2 section. Each chamber was then filled with a biotinylated pMHC solution in PBS with 0.1% BSA at chosen concentration, using cascade dilution to deposit in our 9‐chambers apparatus 8 different amounts of pMHC plus one chamber as a negative control. Microspheres (Dynal M‐450 tosly‐activated, Thermo Fisher, France) were rinsed three time in a 0.1 M borate solution, then incubated in a 200 μg/ml solution of anti‐6xHis‐tag antibody (Bio‐Rad, MCA1396, clone AD1.1.10, RRID: AB322084) overnight under constant agitation. Microspheres were rinsed three time in PBS/0.1% BSA then incubated prior to each experiment in a 200 μg/ml solution of 6xHis‐tag TCR.
The device forming nine independent chambers on a common glass slide was thermo‐regulated at 37°C by water circulation, set on an inverted microscope with a 10× lens (Leica, Germany) with a digital CCD camera (UEye, IDS Germany), and chamber entry was connected to the piping. For each independent chamber, the automaton performed cycles, each cycle being an experiment for a given shear flow. The automaton repeated cycles of microspheres agitation, microspheres injection in the chamber, launch of movie recording at 50 frames per seconds with M‐JPEG on‐the‐fly compression, and flow at a given shear for 90 s. Shear value was automatically modified for each new cycle until all chosen shear conditions had been recorded. The chamber was manually disconnected and next chamber was connected, then automaton was re‐launched. Raw data are in the form of movies of microspheres motion. A software suite written in Java as ImageJ plug‐ins retrieves microspheres trajectories and then detects microspheres arrest events using a velocity threshold and record arrests number, arrests duration and distance travelled by sedimented microspheres.
Binding linear densities are calculated as the ratio of the number of arrests on the distance travelled by microspheres sedimented on the chamber surface. Specific binding densities are calculated by subtracting control linear binding density from assay linear binding density for a given shear condition. Duration of arrests was pooled for experiments sharing identical TCR and pMHC molecules, identical amount of pMHC on the surface and identical shear rate, to build survival curves of the arrests. […] Each TCR‐pMHC bond was measured in 8 to 12 independent experiments.

For experiment [3], the target named is 1G4 TCR. The conditions noted are these: solution affinity of NYE pMHC for 1G4 TCR used in Fig 4F; ref Pettmann et al, 2021; cited from earlier work.
The target in experiment [4] is NYE 3Y peptide presented on HLA-A*02:01. Put plainly: SPR. (Surface plasmon resonance follows binding to a sensor surface in real time, without labels.)
Experiment [5] addresses NYE 3A peptide presented on HLA-A*02:01. Put plainly: SPR.
For experiment [6], the target named is NYE 6V peptide presented on HLA-A*02:01. Kind of experiment: SPR.
Experiment [7] has as its target NYE 4D peptide presented on HLA-A*02:01. Put plainly: SPR.
Experiment [8] deals with NYE 4E5E8E peptide presented on HLA-A*02:01. Kind of experiment: SPR.
In experiment [9] the target is NYE 6T peptide presented on HLA-A*02:01. Put plainly: SPR.
For experiment [10], the target named is Tax 5H peptide presented on HLA-A*02:01 (human | HTLV-1). Kind of experiment: SPR.
Experiment [11] has as its target Tax 5F peptide (printed ) presented on HLA-A*02:01 (human | HTLV-1). Put plainly: SPR.
In experiment [12] the target is Tax 7T peptide presented on HLA-A*02:01 (human | HTLV-1). Kind of experiment: SPR.
Experiment [13] deals with Tax 7R peptide presented on HLA-A*02:01 (human | HTLV-1). Put plainly: SPR.
The target of experiment [14] is Tax 7Q peptide presented on HLA-A*02:01 (human | HTLV-1). Kind of experiment: SPR.

The Kd is the constant that tells how readily two partners part at equilibrium.

As for SLAMWITQV [NYE 3A], the “bond type under force at 25°C, 1G4 TCR” value in the experiment with 1G4 TCR [1] is listed as “canonical slip”. Moreover, in the experiment on 1G4 TCR [2], the “force sensitivity parameter xβ, 1G4 TCR” value is on record as -0.016 nm; the “bond type at forces < 20 pN, 1G4 TCR” value is “slip bonds”; the “bond type under force, 1G4 TCR” value is “did not display canonical slip or catch bonds”; the “zero-force off-rate (k0off) from Bell's model, 1G4 TCR” value was 0.42 s⁻¹.

Regarding SLLDWITQV [NYE 4D], the Kd at 1G4 TCR [3] was 140 µM. Moreover, the “force sensitivity parameter xβ, 1G4 TCR” value in the experiment with 1G4 TCR [2] amounted to 0.03228 nm. The off-rate in the experiment with 1G4 TCR [2] (Force 5.76043 pN) was 0.2871 s⁻¹; in the experiment with 1G4 TCR [2] (Force 10.9915 pN), 0.9234 s⁻¹; with 1G4 TCR [2] (Force 35.7266 pN), 1.088 s⁻¹; in the experiment with 1G4 TCR [2] (Force 49.679 pN), 0.8939 s⁻¹; in the experiment with 1G4 TCR [2] (Force 66.9081 pN), 1.152 s⁻¹; with 1G4 TCR [2] (Force 92.3818 pN) it was 1.23 s⁻¹. The substance further returned a koff_0 in the experiment on 1G4 TCR [2] of -0.1852.

For SLLEEITEV [NYE 4E5E8E], the “force sensitivity parameter xβ, 1G4 TCR” value with 1G4 TCR [2] is 0.06548 nm. Further, the off-rate worked out at 0.132 s⁻¹ with 1G4 TCR [2] (Force 9.5329 pN); 0.181 s⁻¹ in the experiment on 1G4 TCR [2] (Force 20.855 pN); 0.5269 s⁻¹ with 1G4 TCR [2] (Force 57.9236 pN); 0.6611 s⁻¹ in the experiment with 1G4 TCR [2] (Force 74.4128 pN); 0.7569 s⁻¹ with 1G4 TCR [2] (Force 98.8295 pN). In the experiment on 1G4 TCR [2], this substance registered a koff_0 of -0.7399.

On to SLLMWTTQV [NYE 6T], for which the Kd at 1G4 TCR [3] was 162 µM. In addition, the “bond type under force at 25°C, 1G4 TCR” value in the experiment on 1G4 TCR [1] is listed as “catch bonds”. Besides, in the experiment with 1G4 TCR [2], the “force sensitivity parameter xβ, 1G4 TCR” value came to 0.019 nm; the “bond type at forces < 20 pN, 1G4 TCR” value is reported as “slip bonds”; the “bond type under force, 1G4 TCR” value is listed as “did not display canonical slip or catch bonds”; the “zero-force off-rate (k0off) from Bell's model, 1G4 TCR” value was 0.87 s⁻¹.

On to SLLMWVTQV [NYE 6V], for which the “force sensitivity parameter xβ, 1G4 TCR” value in the experiment on 1G4 TCR [2] amounted to 0.08939 nm. For the same substance, the off-rate turned out to be 0.1923 s⁻¹ with 1G4 TCR [2] (Force 4.03 pN); 0.2976 s⁻¹ in the experiment on 1G4 TCR [2] (Force 10.0633 pN); 0.9589 s⁻¹ in the experiment on 1G4 TCR [2] (Force 34.1225 pN); 1.216 s⁻¹ in the experiment on 1G4 TCR [2] (Force 53.3785 pN); 1.468 s⁻¹ in the experiment on 1G4 TCR [2] (Force 71.3475 pN).

With SLYMWITQV [NYE 3Y], in the experiment with 1G4 TCR [2], the “force sensitivity parameter xβ, 1G4 TCR” value was found to be 0.06402 nm. Also, the off-rate stood at 0.1572 s⁻¹ in the experiment with 1G4 TCR [2] (Force 4.46758 pN); 0.462 s⁻¹ in the experiment with 1G4 TCR [2] (Force 11.986 pN); 0.9162 s⁻¹ with 1G4 TCR [2] (Force 24.9875 pN); 1.043 s⁻¹ in the experiment on 1G4 TCR [2] (Force 50.6303 pN); 1.215 s⁻¹ with 1G4 TCR [2] (Force 74.2014 pN).

Consider “Soluble 1G4 TCR (from UniProt P01848 1-93; A0A5B9 1-129)”, for which the Kd in experiment [4] worked out at 55 µM; in [5], 7 µM; in experiment [6], 17 µM; in experiment [7], 139 µM; in experiment [8], 17 µM; in [9], 161 µM.

In the case of “Soluble A6 TCR (from UniProt P01848 1-93; A0A5B9 1-129)”, the Kd in [10] was found to be 56 µM; in experiment [11] it was 3 µM; in experiment [12] it was 3 µM; in experiment [13], 21 µM; in [14], 37 µM.
